Values quoted from earlier work in patent US5998415A, “Bicyclic heteroaryl-alkylene-(homo)piperazinones and thione analogues thereof, their preparation, and their use of as selective agonists of 5-HT1 -like receptors” (Merck Sharp & Dohme Ltd., priority 1995, dated 1999).

Legend:
[1] = humans, therapeutic doses
[2] = system: human 5-HT1Dα and 5-HT1Dβ receptor subtypes; details: cf. WO-A-91/17174, Table 1

## CNS(=O)(=O)Cc1ccc2[nH]cc(CCN(C)C)c2c1 [sumatriptan]
[1]
  adverse cardiovascular events (in words): certain adverse cardiovascular events
[2]
  discrimination between the human 5-HT1Dα and 5-HT1Dβ receptor subtypes (in words): barely discriminates between the human 5-HT1Dα and 5-HT1Dβ receptor subtypes
